# Test results as given in patent publication US9089499B2, “Para-coumaric acid or para-hydroxycinnamic acid derivatives and their use in cosmetic or dermatological compositions” (BASF Beauty Care Solutions France S.A.S., priority 2005, dated 2015).
# Like-named read-outs stand apart in the source and are kept apart here.
# Tests used:
# Human tyrosinase [1] = molecular target: T1, Human tyrosinase (Homo sapiens, UniProt P14679); assay: Inhibition of human tyrosinase after 24 h application to normal human melanocytes in monolayer; assay type: cell-based; conditions: for inhibition at 100 µM: read-out: Inhibition of human tyrosinase after application to normal human melanocytes, percentage of inhibition, Mean 10^−4M; for inhibition at 10 µM: 10^−5M, read-out: Inhibition of human tyrosinase after application to normal human melanocytes, percentage of inhibition, Mean 10^−5M; for anti-tyrosinase activity, in words: comment on Table 4, normal human melanocytes; for Tyrosinase inhibition, Mean Inhibition (%), 0.03%: test concentration 0.03%
# T1 construct: endogenous in cells; host or cells: normal human melanocytes (abdominal surgery; several donors of fair, brown and black phototypes)
# T1 sequence (P14679 19-529): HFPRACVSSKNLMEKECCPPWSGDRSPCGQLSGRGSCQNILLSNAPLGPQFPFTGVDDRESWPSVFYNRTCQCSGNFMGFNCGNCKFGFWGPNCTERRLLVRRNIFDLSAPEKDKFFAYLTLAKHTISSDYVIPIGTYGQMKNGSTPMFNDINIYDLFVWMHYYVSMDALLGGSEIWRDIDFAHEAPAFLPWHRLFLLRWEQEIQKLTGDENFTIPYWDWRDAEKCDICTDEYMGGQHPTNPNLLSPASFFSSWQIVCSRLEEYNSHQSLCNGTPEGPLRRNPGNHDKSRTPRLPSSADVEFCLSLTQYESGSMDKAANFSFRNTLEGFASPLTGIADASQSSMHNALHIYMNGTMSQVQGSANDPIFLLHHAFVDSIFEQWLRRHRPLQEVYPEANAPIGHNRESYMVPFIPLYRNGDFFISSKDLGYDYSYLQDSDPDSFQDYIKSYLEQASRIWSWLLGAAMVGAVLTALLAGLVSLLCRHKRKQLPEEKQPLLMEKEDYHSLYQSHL
# Method: Normal human melanocytes (obtained from abdominal surgery) are seeded in 24-well plates at a rate of 80 000 cells per well. They are cultured to confluence and the active agents are applied for 24 hours to the culture media. After 24 hours, the media are removed and the melanocytes are detached via mechanical action. An extraction is performed via a thermal shock and the supernatants are then recovered and incubated with MBTH (Sigma) and L-dopa (Sigma). The OD at 490 nm is measured after 30 minutes, and the tyrosinase inhibition is calculated by relating the OD at 490 nm to the protein content (measured in each culture well) of the test relative to the ratio: OD 490 nm/protein concentration of the negative control (untreated control).
# The compounds derived from the examples mentioned above were tested on melanocytes derived from various donors but of fair phototype, according to the protocol described in Example 29. The donors tested are as follows: • donor S (donor tested in Example 12): • donor 1: • donor 2: • donor 3
# The compound derived from Example 1 is tested on cultures of melanocytes obtained from 2 donors of brown phototype and from one donor of black phototype. The protocol applied is that described in Example 29. […]
# fungal tyrosinase = assay: In vitro test of inhibition of isolated fungal tyrosinase (L-dopa, dopachrome OD 490 nm); assay type: biochemical; conditions: for Inhibition of fungal tyrosinase, percentage of inhibition, Mean 10^−4M / Inhibition of fungal tyrosinase, percentage of inhibition, Mean 10^−5M: 490 nm
# From the text: Tyrosinase catalyses the formation of L-dopaquinone and then of dopachrome from L-dopa. Now, dopachrome is a coloured compound that may be quantified by visible spectrophotometry at 490 nm. The use of an active agent capable of modifying the enzymatic activity will be reflected by a variation in the optical density at 490 nm. The to ratio of the rates of formation of dopachrome makes it possible to determine precisely the activations or inhibitions obtained with the various test molecules.
# The sample to be tested is incubated in the presence of fungal tyrosinase (Sigma), for 5 minutes with stirring. L-Dopa (Sigma), a tyrosinase substrate, is incubated for 10 minutes in the absence of light, in the presence or absence of the test molecules. The calculation of the percentage of inhibition is performed by relating the test OD to the OD of the negative control without molecule.
# In the context of this in vitro test, the p-coumaric acid derivatives were tested at final concentrations of 10^−4M and 10^−5M.
# Human tyrosinase [2] = molecular target: T1, Human tyrosinase; assay: In vitro test of inhibition of human tyrosinase from melanocyte extracts (L-dopa/MBTH, OD 490 nm); assay type: biochemical; conditions: melanocyte extract; for inhibition at 100 µM: 10^−4M, read-out: Inhibition of human tyrosinase, percentage of inhibition, Mean 10^−4M; for inhibition at 10 µM: 10^−5M, read-out: Inhibition of human tyrosinase, percentage of inhibition, Mean 10^−5M
# Method: Human tyrosinase, obtained from melanocyte extracts obtained from healthy donors, catalyses the formation of L-dopaquinone from L-dopa. Now, the L-dopaquinone may be quantified by visible spectrophotometry at 490 nm by means of a chromogen: 3-methyl-2-benzothiazolinone hydrazone (MBTH).
# The melanocyte extract is obtained after lysis of cell membranes of the normal human melanocytes, performed via a thermal shock. The supernatant is recovered and then incubated with MBTH (Sigma) and L-dopa (Sigma). […]
# normal human melanocytes = assay: Cytotoxicity on normal human melanocytes, PNPP assay; assay type: cell-based; conditions: 24 hours, relative to untreated wells
# Method: The cytotoxicity of the active agents is studied on normal human melanocytes in 24-well plates, via assay with PNPP (P-nitrophenyl phosphate), this substance being converted into p-nitrophenol via the intracellular acid phosphatases of viable cells. The absorbance of p-nitrophenol at 405 nm is directly proportional to the number of viable cells.
# The active agents are tested at 2 different concentrations (10^−4 M and 10^−5 M) and added to the culture medium and incubated at 37° C. for 24 hours. The assay with PNPP is performed on the cell lawn and the results are expressed as a percentage of viability relative to the negative control (untreated wells).
# [3] = Antiradical activity, acellular DPPH model; conditions: DPPH 30 minutes, absorbance 520 nm
# Method: The antiradical activity of the derivatives derived from the syntheses described above was evaluated in an in vitro acellular model using DPPH.
# 1,1-Diphenyl 2-picryihydrazyl, on account of its paramagnetic structure, can accept an electron or a hydrogen radical to become a stable diamagnetic molecule. This free radical, which is purple coloured in ethanol, has a strong absorption band at 520 nm.
# The addition of a compound that provides electrons results in a decolorization of the 1,1-diphenyl 2-picrylhydrazyl that is proportional to the number of electrons taken up by the radical, which may be monitored by measuring the absorbance at 520 nm.
# DPPH is incubated for 30 minutes in the presence of the derivatives described above, tested at a concentration of 10^−5M, or alone for the control. At the end of the incubation, the antiradical activity of the above derivatives is evaluated by measuring the absorbance of the solution at 520 nm.
# The antiradical activity of each test product is calculated according to the formula, as a percentage: 100−((OD520 in the presence of the test compound/OD520 in the absence of compound)×100)
# melanocytes = assay: Cytotoxicity of literature controls in the melanocyte tyrosinase model
# Method: A study is performed with molecules known in the literature for their depigmenting activity; these molecules are applied to the model described in Example 29 so as to compare their efficacy relative to the molecules described in the various examples. […]
compound,measurement,setting,value
"COc1cc(CCC(=O)NCCc2ccc(O)cc2)ccc1O [Example 5, N-dihydroferuloyltyramine]",inhibition at 100 µM,"Human tyrosinase [1]; 10^−4M, 24 hours",27.7%
"COc1cc(/C=C/C(=O)NCCc2ccc(OC)c(OC)c2)ccc1O [Example 2, N-trans-feruloyl-3,4-dimethoxydopamine]","Inhibition of fungal tyrosinase, percentage of inhibition, Mean 10^−4M",fungal tyrosinase,0%
same,inhibition at 100 µM,Human tyrosinase [2],0.94%
same,inhibition at 10 µM,Human tyrosinase [2],0%
same,inhibition at 100 µM,"Human tyrosinase [1]; 10^−4M, 24 hours",24.6%
same,inhibition at 10 µM,Human tyrosinase [1]; 24 hours,18.5%
same,"Percentages of viability, Mean 10^−4 M",normal human melanocytes; 10^−4 M,114.29%
same,"Percentages of viability, Mean 10^−5 M",normal human melanocytes,114.6%
same,"Antiradical activity, Mean 10^−5 M",[3],20.16%
"O=C(O)C=Cc1ccc(O)c(O)c1 [Caffeic acid, 3,4-dihydroxycinnamic acid, reference compound]",inhibition at 100 µM,"Human tyrosinase [1]; 10^−4M, 24 hours",10.4%
same,inhibition at 10 µM,Human tyrosinase [1]; 24 hours,2.34%
same,"anti-tyrosinase activity, in words",Human tyrosinase [1],very low activity
"O=C(CCc1ccc(O)c(O)c1)NCCc1ccc(O)cc1 [Example 13, dihydrocaffeoyltyramine]",inhibition at 100 µM,"Human tyrosinase [1]; 10^−4M, 24 hours",93.9%
same,inhibition at 10 µM,Human tyrosinase [1]; 24 hours,12.9%
"COc1cc(CNC(=O)/C=C/c2ccc(O)c(O)c2)ccc1O [Example 11, N-trans-caffeoyl-4-hydroxy-3-methoxyphenylmethylamine]","Inhibition of fungal tyrosinase, percentage of inhibition, Mean 10^−4M",fungal tyrosinase,12.03%
same,"Inhibition of fungal tyrosinase, percentage of inhibition, Mean 10^−5M",fungal tyrosinase,3.7%
same,inhibition at 100 µM,Human tyrosinase [2],0%
same,inhibition at 10 µM,Human tyrosinase [2],8.68%
same,inhibition at 10 µM,Human tyrosinase [1]; 24 hours,28%
same,"Percentages of viability, Mean 10^−5 M",normal human melanocytes,116.99%
same,"Antiradical activity, Mean 10^−5 M",[3],59.2%
"O=C(CCc1ccc(O)cc1)NCCc1ccc(O)cc1 [Example 16, N-dihydrocoumaroyltyramine]",inhibition at 100 µM,"Human tyrosinase [1]; 10^−4M, 24 hours",96.2%
same,inhibition at 10 µM,Human tyrosinase [1]; 24 hours,40.7%
"O=C(O)CCc1ccc(O)cc1 [p-Dihydrocoumaric acid, 3-(4-hydroxyphenyl)propionic acid, reference compound]",inhibition at 100 µM,"Human tyrosinase [1]; 10^−4M, 24 hours",3.74%
"COc1ccc(CCNC(=O)/C=C/c2ccc(O)c(O)c2)cc1OC [Example 12, N-trans-caffeoyl-3,4-dimethoxydopamine]","Inhibition of fungal tyrosinase, percentage of inhibition, Mean 10^−4M",fungal tyrosinase,17.32%
same,"Inhibition of fungal tyrosinase, percentage of inhibition, Mean 10^−5M",fungal tyrosinase,20.26%
same,inhibition at 100 µM,Human tyrosinase [2],6.53%
same,inhibition at 10 µM,Human tyrosinase [2],0%
same,inhibition at 10 µM,Human tyrosinase [1]; 24 hours,5.63%
same,"Percentages of viability, Mean 10^−5 M",normal human melanocytes,109.84%
same,"Antiradical activity, Mean 10^−5 M",[3],44.51%
"Cl.NCCc1ccc(O)cc1 [Tyramine, reference compound]","anti-tyrosinase activity, in words",Human tyrosinase [1],very low activity
same,inhibition at 100 µM,Human tyrosinase [1],22.8%
"O=C(O)C=Cc1ccc(O)cc1 [p-Coumaric acid, p-hydroxycinnamic acid, reference compound]",inhibition at 100 µM,"Human tyrosinase [1]; 10^−4M, 24 hours",50.1%
"O=c1cc(CO)occ1O [Kojic acid, kojic acid]","Inhibition of fungal tyrosinase, positive control",fungal tyrosinase; 0.01%,45%
same,"Cytotoxicity, 0.005%",melanocytes,no
same,"Cytotoxicity, 0.05%",melanocytes,no
same,"Cytotoxicity, 0.5%",melanocytes,cell death
"Cl.NCCc1ccc(O)c(O)c1 [Dopamine, 3-hydroxytyramine, reference compound]","anti-tyrosinase activity, in words",Human tyrosinase [1],very low activity
same,inhibition at 100 µM,Human tyrosinase [1],10.3%
"COc1cc(C=CC(=O)O)ccc1O [Ferulic acid, 4-hydroxy-3-methoxycinnamic acid, reference compound]",inhibition at 100 µM,"Human tyrosinase [1]; 10^−4M, 24 hours",11.7%
same,inhibition at 10 µM,Human tyrosinase [1]; 24 hours,5.87%
same,"anti-tyrosinase activity, in words",Human tyrosinase [1],very sparingly active
"COc1cc(CCC(=O)NCCc2ccc(O)c(O)c2)ccc1O [Example 6, N-dihydroferuloyldopamine]",inhibition at 100 µM,"Human tyrosinase [1]; 10^−4M, 24 hours",41.8%
"O=C1O[C@H]([C@@H](O)CO)C([O-])=C1OP(=O)([O-])[O-].O=C1O[C@H]([C@@H](O)CO)C([O-])=C1OP(=O)([O-])[O-].[Mg+2].[Mg+2].[Mg+2] [VitC MgP, reference compound]","Tyrosinase inhibition, Mean Inhibition (%), 0.03%",Human tyrosinase [1],2.93%
same,"Tyrosinase inhibition, Mean Inhibition (%), 0.3%",Human tyrosinase [1]; test concentration 0.3%,1.55%
same,"Tyrosinase inhibition, Mean Inhibition (%), 3%",Human tyrosinase [1]; test concentration 3%,0%
same,"Cytotoxicity, 0.03%",melanocytes,no
same,"Cytotoxicity, 0.3%",melanocytes,no
same,"Cytotoxicity, 3%",melanocytes,no
"O=C1O[C@H]([C@@H](O)CO)C(O)=C1O [VitC, Vitamin C]","Tyrosinase inhibition, Mean Inhibition (%), 0.03%",Human tyrosinase [1],0%
same,"Cytotoxicity, 0.03%",melanocytes,no
same,"Cytotoxicity, 0.3%",melanocytes; test concentration 0.3%,cell death
same,"Cytotoxicity, 3%",melanocytes; test concentration 3%,cell death
"COc1cc(/C=C/C(=O)OCCc2ccc(O)cc2)ccc1O [Example 7, 2-(p-hydroxyphenylethyl)trans-ferulate]",inhibition at 100 µM,"Human tyrosinase [1]; 10^−4M, 24 hours",33.6%
same,inhibition at 10 µM,Human tyrosinase [1]; 24 hours,3.48%
